Data taken from paper PMC2688476, “Low affinity glucocorticoid binding site ligands as potential anti-fibrogenics” (Comparative Hepatology, 2009).

Key:
[1] = Pilot toxicity study in adult male rats; type: in vivo, rat; details: 3 days at up to 100 mg/kg body weight i.p.; 24 hours after final treatment
Protocol: Since there was no information in the literature regarding any potential adverse effects of 4A3COOHmethyl administration, a pilot toxicity study was initially undertaken, in which adult male rats were administered 4A3COOHmethyl for 3 days at up to 100 mg/kg body weight by i.p. injection.

CYP3A4 = assay: Screening for PXR activators in human hepatocytes via CYP3A induction (Western blot); type: cell-based; details: human
CYP3A1/3A23 = assay: Screening for PXR activators in rat hepatocytes via CYP3A induction (Western blot); type: cell-based; details: rat
human HSCs = assay: Human HSC trans-differentiation/proliferation (confluence, α-sma); type: cell-based; details: confluence at day 12
Protocol: (§1) Figure 5 Screening for inhibitors of trans-differentiation in rat and human HSCs – Part 1. Rat HSCs were isolated and cultured for 2 days (T0) whereupon cells were treated with the indicated compound as outlined in methods section. After 9 days, cells were analyzed by Western blotting for α-smooth muscle actin (α-sma). Each lane contains 10 μg total protein/lane, results typical of at least 3 separate experiments (a). Human HSCs were treated with the indicated compound and confluence determined in randomly selected fields. Data are the mean and standard deviation confluence at day 12 of 3 separate treatment dishes from the same donor, typical of at least 3 separate donors (b).
Figure 6 Screening for inhibitors of trans-differentiation in rat and human HSCs – Part 2. Photomicrographs of human HSCs at day 12 of culture with the indicated treatment (a); levels of expression of α-smooth muscle actin (α-sma) (b) and levels of expression of fibrogenic marker mRNA transcripts in human HSCs after treatment selected compounds for 19 days. Data are the mean and standard deviation relative transcript level from 3 separate treatments on cells from the same donor, typical of at least 3 separate donors (c).
(§2) HSCs were isolated from rats (250–300 g body weight, Harlan, UK) by sequential pronase/collagenase perfusion of the liver followed by density gradient centrifugation and elutriation as previously outlined. Human HSCs were isolated by an essentially similar procedure using discarded tissue from patients undergoing a hepatectomy with patient consent and ethical approval by the Grampian Regional Ethical Committee. HSCs were seeded onto plastic culture dishes and cultured in Dulbecco's modified Eagle Medium (DMEM) containing 4.5 g/l of glucose and supplemented with 5% or 16% (v/v) fetal calf serum (for rat or human respectively), […] penicillin, 80 μg/ml streptomycin and 32 μg/ml gentamycin. Additional treatments were made by addition of compounds in an ethanol vehicle (stock solutions at 1000× final concentration). Ethanol at 0.1% (v/v) acted as control. Frequency of treatment (3 treatments per week/2 medium changes per week), as previously described.

[2] = system: rat CCl4 model of liver fibrosis; assay: Rat CCl4 model of liver fibrosis; type: in vivo; details: 20 mg/kg i.p. weekly, 8 weeks CCl4
Protocol: To examine the effects of 4A3COOHmethyl on fibrosis, adult male rats were treated with 20 mg/kg body weight by i.p. injection every week during an 8 week twice weekly treatment with CCl4, to generate liver fibrosis. A reduced dose of 20 mg/kg body weight was chosen because the compound was to be administered to rats with compromised liver function. To avoid potential interactions with CCl4, toxicity (i.e., reductions in CCl4 hepatotoxicity that could be misinterpreted as anti-fibrogenic effects), 4A3COOHmethyl was not administered within a 48 hour period of CCl4 administration. Previous work has established that a similar dose of PCN – using the same dosing regimen – is sufficient to modulate fibrosis in animal models of fibrosis.
Figure 7 4A3COOHmethyl administration and liver fibrosis in a rat CCl4 model of liver fibrosis. […] Mean and standard deviation serum ALT (a); Mean and standard deviation collagen 1A1 mRNA levels (b); typical views of liver sections stained for sirius red, with a 100 μm scale bar (b); quantitative image analysis for fibrosis – data are the mean and standard deviation percentage sirius red staining from at least 4 separate animals in each treatment with at least 10 randomly selected fields examined for each animal (c). […]

[3] = target: low affinity glucocorticoid binding site (LAGS) in rat liver microsomes (Rattus norvegicus, UniProt P70580); assay: Competition with radiolabelled dexamethasone for specific binding to rat liver microsomes (LAGS activity); details: read-out: IC50% (competition of substituted progestins for binding to rat liver microsomes); Additional file 1; vs radiolabelled dexamethasone
Protocol: A small volume of each incubation was removed to determine the total ligand concentration ([L0]) prior to removal of free unbound ligand by dextran/charcoal adsorption. […] Free ligand concentration at equilibrium was calculated by subtracting specifically bound ligand at equilibrium from the total ligand concentration (i.e. [L0] - [LRe]) and assumes receptor-ligand stoichiometry of 1:1.
In brief, rats were anaesthetized with pentobarbital and a 16G cannula inserted into the hepatic portal vein and secured. […] The liver was then excised and chopped roughly with ice-cooled TS buffer (10 mM Tris/HCl pH 7.4 containing 250 mM sucrose) and disrupted using a Potter-Elvehjem homogenisor. The resultant homogenate was then centrifuged at 12,000 g for 20 minutes at 4°C and the supernatant retained and centrifuged at 100,000 g for 60 minutes at 4°C. The resultant "microsomal" pellet was re-suspended in fresh TS buffer and re-centrifuged at 100,000 g to obtain a washed microsomal pellet. […] After overnight incubation on ice, free ligand was removed by charcoal dextran adsorption and bound radioligand determined in supernatants by liquid scintillation, essentially as previously described.

rat HSCs = assay: Rat HSC-to-myofibroblast trans-differentiation (α-smooth muscle actin Western blot); type: cell-based; details: α-sma Western blot after 9 days of treatment
Protocol: as §1, §2

human myofibroblasts = assay: Fibrogenic marker mRNA transcripts (TGFβ, TIMP1, collagen 1A1) in human myofibroblasts, qRT-PCR; type: cell-based; details: treatment for 19 days
Text: Quantitative transcript expression was examined after reverse transcription (using a Taqman reverse transcription kit (Applied Biosystems)) using a PE Applied Biosystems ABI7700 and PE Applied Biosystems Gene Expression Assay™, incorporating sequence-specific forward, reverse and fluorescently labelled probes (see Table 2).

Chain of low affinity glucocorticoid binding site (LAGS) in rat liver microsomes (P70580 2-195): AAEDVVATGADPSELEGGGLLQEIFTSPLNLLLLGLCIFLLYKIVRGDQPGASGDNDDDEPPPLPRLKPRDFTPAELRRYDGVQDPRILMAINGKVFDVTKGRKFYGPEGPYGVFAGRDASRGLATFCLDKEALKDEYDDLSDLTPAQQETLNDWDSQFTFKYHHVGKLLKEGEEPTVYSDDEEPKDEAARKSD

COC(=O)[C@H]1CC[C@H]2[C@@H]3CCC4=CC(=O)CC[C@]4(C)[C@H]3CC[C@]12C [4A3COOHmethyl, 4 androstene-3-one 17β-carboxylic acid methyl ester]
adverse effects (liver serum enzyme levels and liver pathology) [1]: no adverse effects were observed
activity as a PXR activator, human (CYP3A4): no activity
activity as a PXR activator, rat (CYP3A1/3A23): no activity
inhibitory activity on human HSC trans-differentiation (human HSCs): significant inhibitory activity
fibrosis severity (α-sma staining, collagen 1a1 mRNA, sirius red staining) [2]: did not significantly affect
serum levels of ALT [2]: did not affect
IC50 [3]: 100 nM
inhibition of rat HSC trans-differentiation (rat HSCs): effective
expression of TGFβ, TIMP1 and collagen 1A1 mRNAs in human myofibroblasts (human myofibroblasts): inhibited the expression of all mRNAs
